In patent US20100292185A1, “BETA-LACTAMASE INHIBITORS” (priority 2009, published 2010):
pIC50: −log10 of the molar value. Counter-ions that a name gives are not always drawn. Like-named read-outs stand apart in the source and are kept apart here.

Assays:
OXA-23 β-lactamase = target: T1, OXA-23 β-lactamase (Acinetobacter baumannii, UniProt Q9L4P2); test: β-lactamase enzyme inhibition assay (nitrocefin substrate), OXA-23 crude extract; format: biochemical; conditions: nitrocefin 100 μM, 37° C., PBS pH 7.0; read-out: OXA-23 IC50
T1 construct: crude β-lactamase extracts were prepared from 20 ml overnight cultures; endogenous in cells; host or cells: Acinetobacter baumannii cells containing OXA-23 (crude freeze-thaw extract)
T1 sequence (Q9L4P2 18-273): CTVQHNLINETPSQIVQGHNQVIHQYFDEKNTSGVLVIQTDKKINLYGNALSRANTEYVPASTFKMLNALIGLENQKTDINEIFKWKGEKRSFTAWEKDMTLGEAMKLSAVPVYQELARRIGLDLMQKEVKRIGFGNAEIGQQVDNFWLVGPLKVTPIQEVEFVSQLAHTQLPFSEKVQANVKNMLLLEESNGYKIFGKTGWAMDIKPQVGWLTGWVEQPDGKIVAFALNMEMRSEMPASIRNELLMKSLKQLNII
How it was run: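 Crude enzyme came from freeze-thaw extracts of mid-log OXA-23-carrying A. baumannii grown in MH-II broth at 37° C. Inhibitors (100–0.005 μM in PBS pH 7.0) were preincubated with the enzyme for 10 min at 37° C, then 100 μM nitrocefin (final) was added and read kinetically at 486 nm for 10 min. IC50 was taken from initial hydrolysis rates relative to uninhibited controls.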

SHV-5 β-lactamase = target: T2, SHV-5 β-lactamase (Klebsiella pneumoniae, UniProt P0A3M1); test: β-lactamase enzyme inhibition assay (nitrocefin substrate), SHV-5; format: biochemical
T2 construct: expressed as native untagged proteins; made in house; host or cells: E. coli BL21(DE3)
T2 sequence (P0A3M1 22-286): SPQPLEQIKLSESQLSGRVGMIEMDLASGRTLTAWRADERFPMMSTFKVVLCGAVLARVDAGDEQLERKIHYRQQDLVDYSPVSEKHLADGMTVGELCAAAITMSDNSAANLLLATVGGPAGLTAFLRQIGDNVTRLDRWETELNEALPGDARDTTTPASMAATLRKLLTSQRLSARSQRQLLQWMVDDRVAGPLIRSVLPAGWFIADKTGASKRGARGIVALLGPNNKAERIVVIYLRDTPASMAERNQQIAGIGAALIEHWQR
How it was run: (§1)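 Native untagged enzymes were expressed in E. coli BL21(DE3) and purified by cation exchange and gel filtration. Compounds (100–0.005 μM in PBS pH 7.0) were preincubated with enzyme for 10 min at 37 °C, then 100 μM nitrocefin (final) was added. IC50 was derived from the maximum hydrolysis rate at 486 nm, read kinetically for 10 min, relative to uninhibited controls.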

[1] = system: P. aeruginosa expressing the Class B metallo β-lactamase VIM-2; test: In vitro antibacterial assay of β-lactamase inhibition (broth microdilution MIC), P. aeruginosa VIM-2; format: cell-based; conditions: in presence of Ceftazidime 16 μg/mL (Examples 1-56)
How it was run: (§2)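 Each strain, maintained under 50 μg/mL ampicillin selection, was exposed to twofold compound dilutions (final range 8 μg/mL to 0.015 μg/ml) combined with a β-lactam antibiotic in cation-adjusted Mueller Hinton broth. The MIC was judged visually following overnight (16-20 h) incubation at 37° C.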

CTX-M15 β-lactamase = target: T3, CTX-M15 β-lactamase (Escherichia coli, UniProt Q9EXV5); test: β-lactamase enzyme inhibition assay (nitrocefin substrate), CTXM-15; format: biochemical
T3 construct: expressed as native untagged proteins; made in house; host or cells: E. coli BL21(DE3)
T3 sequence (Q9EXV5 entry or part of it): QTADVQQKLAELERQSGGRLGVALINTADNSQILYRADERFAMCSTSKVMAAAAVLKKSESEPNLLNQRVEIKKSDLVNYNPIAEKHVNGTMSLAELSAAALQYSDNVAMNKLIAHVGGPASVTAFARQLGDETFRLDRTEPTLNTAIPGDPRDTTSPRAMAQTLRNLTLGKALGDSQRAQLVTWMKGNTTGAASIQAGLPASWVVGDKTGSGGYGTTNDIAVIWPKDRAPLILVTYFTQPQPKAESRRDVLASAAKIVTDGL
How it was run: as §1

[2] = system: E. coli expressing the Class A ESBL SHV-5; test: In vitro antibacterial assay of β-lactamase inhibition (broth microdilution MIC), E. coli SHV-5; format: cell-based; conditions: in presence of Ceftazidime 8 μg/ml (Examples 1-56)
How it was run: as §2

[3] = target: T4, VIM-2 metallo β-lactamase (Pseudomonas aeruginosa, UniProt Q9K2N0); test: β-lactamase enzyme inhibition assay (nitrocefin substrate), VIM-2; format: biochemical; conditions: nitrocefin 100 μM, 37° C., PBS pH 7.0; read-out: VIM-2 IC50
T4 construct: made in house
How it was run: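 VIM-2 was expressed untagged in E. coli BL21(DE3) and purified by two Q sepharose anion-exchange runs plus gel filtration to >90% purity. Compounds at 100–0.005 μM in PBS pH 7.0 were preincubated with enzyme for 10 min at 37° C, then nitrocefin was added at 100 μM final. Hydrolysis was followed kinetically at 486 nm for 10 min; IC50 is the concentration halving the initial rate relative to no-inhibitor wells.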

KPC-2 β-lactamase = target: T5, KPC-2 β-lactamase (Klebsiella pneumoniae, UniProt Q9F663); test: β-lactamase enzyme inhibition assay (nitrocefin substrate), KPC-2; format: biochemical
T5 construct: expressed as native untagged proteins; made in house; host or cells: E. coli BL21(DE3)
T5 sequence (Q9F663 25-293 limits assumed): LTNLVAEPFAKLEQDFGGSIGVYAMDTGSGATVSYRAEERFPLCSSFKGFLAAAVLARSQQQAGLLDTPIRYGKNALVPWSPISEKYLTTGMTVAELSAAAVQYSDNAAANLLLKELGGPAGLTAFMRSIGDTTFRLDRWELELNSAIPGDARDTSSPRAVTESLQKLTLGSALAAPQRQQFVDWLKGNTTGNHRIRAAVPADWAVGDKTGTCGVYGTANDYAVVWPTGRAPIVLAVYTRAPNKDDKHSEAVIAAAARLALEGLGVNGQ
How it was run: as §1

[4] = system: E. cloacae expressing the Class C P99+; test: In vitro antibacterial assay of β-lactamase inhibition (broth microdilution MIC), E. cloacae P99+; format: cell-based; conditions: in presence of Ceftazidime 8 μg/ml (Examples 1-56)
How it was run: as §2

p99 AmpC β-lactamase = target: T6, p99 AmpC β-lactamase (Enterobacter cloacae, UniProt P05364); test: β-lactamase enzyme inhibition assay (nitrocefin substrate), P99 AmpC; format: biochemical
T6 construct: expressed as native untagged proteins; made in house; host or cells: E. coli BL21(DE3)
T6 sequence (P05364 21-381): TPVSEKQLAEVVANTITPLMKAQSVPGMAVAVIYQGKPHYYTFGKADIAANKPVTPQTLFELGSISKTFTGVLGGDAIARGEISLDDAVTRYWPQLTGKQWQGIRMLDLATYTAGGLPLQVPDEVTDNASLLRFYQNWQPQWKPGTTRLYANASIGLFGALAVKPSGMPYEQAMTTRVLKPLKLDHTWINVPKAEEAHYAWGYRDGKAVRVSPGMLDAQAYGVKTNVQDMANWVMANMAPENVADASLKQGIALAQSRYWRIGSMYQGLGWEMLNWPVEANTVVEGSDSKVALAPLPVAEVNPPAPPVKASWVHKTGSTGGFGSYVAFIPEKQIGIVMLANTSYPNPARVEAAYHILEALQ
How it was run: as §1

[5] = system: K. pneumoniae expressing the Class A carbapenemase KPC-2; test: microbe, parasite or virus in culture; format: cell-based; conditions: in presence of Ceftazidime 8 μg/ml (Examples 1-56)
How it was run: as §2

[6] = system: K. pneumoniae expressing the Class A Extended Spectrum Beta-Lactamase (ESBL) CTX-M-15; test: In vitro antibacterial assay of β-lactamase inhibition (broth microdilution MIC), K. pneumoniae CTX-M-15; format: cell-based; conditions: in presence of Ceftazidime 8 μg/ml (Examples 1-56)
How it was run: as §2

[7] = nitrocefin 100 μM, 37° C., PBS pH 7.0, read-out: P99 AmpC IC50

Row | Compound | pIC50 (OXA-23 β-lactamase) | pIC50 (SHV-5 β-lactamase) | MIC of example compound, P. aeruginosa VIM-2 [1] [µg/mL] | pIC50 (CTX-M15 β-lactamase) | MIC of example compound, E. coli SHV-5 [2] [µg/mL] | pIC50 [3] | pIC50 (KPC-2 β-lactamase) | MIC of example compound, E. cloacae P99+ [4] [µg/mL] | pIC50 (p99 AmpC β-lactamase; [7]) | MIC of example compound, K. pneumoniae KPC-2 [5] [µg/mL] | MIC of example compound, K. pneumoniae CTX-M-15 [6] [µg/mL] | pIC50 (p99 AmpC β-lactamase)
1 | CN(C)Cc1ccc(CC(=O)N[C@@H](Cc2cccc(C(=O)O)c2O)B(O)O)cc1 [Example 36, (1R)-[2-(4-dimethylaminomethyl-phenyl)-acetylamino]-(3-carboxy-2hydroxy)benzyl-methylboronic acid formate] | 6.72 | 8.70 | >8 | 8.40 | 0.5 | 6.23 | 8.30 | 0.25 | 8.70 | 0.06 | 0.12 | –
2 | O=C(Cc1ccc(CN2CCNCC2)cc1)N[C@@H](Cc1cccc(C(=O)O)c1O)B(O)O [Example 37, (1R)-[2-(4-piperazin-1-ylmethyl-phenyl)-acetylamino]-(3-carboxy-2hydroxy)benzyl-methylboronic acid formate] | 7.08 | 8.70 | >8 | 8.15 | 2 | 6.11 | 8.05 | 2 | 8.70 | 0.03 | 2 | –
3 | O=C(Cc1ccc(CN(CCO)CCO)cc1)N[C@@H](Cc1cccc(C(=O)O)c1O)B(O)O [Example 39, (1R)-[2-(4-{[bis-(2-hydroxy-ethyl)-amino]-methyl}-phenyl)-acetylamino]-(3-carboxy-2-hydroxy)benzyl-methylboronic acid formate] | 6.78 | 6.01 | >8 | 8.40 | 0.5 | 6.33 | 7.59 | 2 | 7.92 | 0.03 | 0.5 | –
4 | C[N+]1(Cc2ccc(CC(=O)N[C@@H](Cc3cccc(C(=O)O)c3O)B(O)O)cc2)CCOCC1 [Example 41, 4-(4-{[2-(3-carboxy-2-hydroxy-phenyl)-1-borono-ethylcarbamoyl]-methyl}-benzyl)-4-methyl-morpholin-4-ium formate] | 6.70 | 8.40 | >8 | 8.70 | 0.5 | < 6.00 | 8.00 | 1 | – | 0.03 | 0.25 | 7.70
5 | Cl.Nc1cncc(C(=O)N[C@@H](Cc2cccc(C(=O)O)c2O)B(O)O)c1 [Example 44, (2R)-3-{[2-(5-amino-pyridine-3-carbonyl)-amino]-2-borono-ethyl}-2-hydroxy-benzoic acid hydrochloride] | 6.92 | 7.15 | >8 | 8.70 | 1 | 6.16 | 7.52 | 1 | 9.00 | 0.015 | 0.25 | –
6 | Nc1cc(CC(=O)N[C@@H](Cc2cccc(C(=O)O)c2O)B(O)O)ccn1 [Example 45, (2R)-3-{2-[(2-amino-pyridin-4-yl-acetyl)-amino]-2-borono-ethyl}-2-hydroxy-benzoic acid formate] | 6.95 | 8.00 | >8 | 9.30 | 0.03 | 6.09 | 8.22 | 0.06 | – | 0.007 | 0.03 | 8.70
7 | Br.CC(C)(O/N=C(\C(=O)N[C@@H](Cc1cccc(C(=O)O)c1O)B(O)O)c1csc(N)n1)C(=O)O [Example 48, 3-{2(R)-[2-(2-amino-thiazol-4-yl)-2-(1-carboxy-1-methyl-ethoxyimino)-acetylamino]-2-borono-ethyl}-2-hydroxy-benzoic acid hydrobromide] | 6.17 | 8.40 | >8 | 7.92 | >8 | < 6.00 | 7.15 | >8 | 8.00 | 2 | >8 | –
8 | Cl.Nc1nc(/C(=N/O)C(=O)N[C@@H](Cc2cccc(C(=O)O)c2O)B(O)O)cs1 [Example 49, 3-{2(R)-[2-(2-amino-thiazol-4-yl)-2(Z)-hydroxyimino-acetylamino]-2-borono-ethyl}-2-hydroxy-benzoic acid hydrochloride] | 7.77 | 8.40 | >8 | 7.96 | 2 | 6.23 | 7.47 | 2 | 8.70 | 0.12 | 2 | –
9 | C/C(=N/O)C(=O)N[C@@H](Cc1cccc(C(=O)O)c1O)B(O)O [Example 54, 3-[2(R)-(2-hydroxyimino-propionylamino)-2-borono-ethyl]-2-hydroxy-benzoic acid] | 6.31 | 7.32 | >8 | 8.30 | 2 | < 6.00 | 8.00 | 1 | 8.70 | 0.03 | 1 | –
10 | CC/C(=N/O)C(=O)N[C@@H](Cc1cccc(C(=O)O)c1O)B(O)O [Example 55, 3-[2(R)-(2-hydroxyimino-butyrylamino)-2-borono-ethyl]-2-hydroxy-benzoic acid] | 7.17 | 6.92 | >8 | 9.00 | 2 | < 6.00 | 8.22 | 1 | 9.30 | 0.06 | 2 | –
11 | CCC(=O)C(=O)N[C@@H](Cc1cccc(C(=O)O)c1O)B(O)O [Example 56, 3-[2(R)-(2-oxo-butyrylamino)-2-borono-ethyl]-2-hydroxy-benzoic acid] | 7.51 | 6.71 | >8 | 7.96 | >8 | < 6.00 | 7.62 | 2 | 8.70 | 0.25 | 4 | –
